Test results published in PubChem BioAssay AID1963982 (Molecular Pharmacology Branch, DTP, NCI, 2024).
pIC50: −log10 of the molar value. Values belong to the compound of their own block, whether it stands above or below them.

Test system: 313798-341-R-J2-PDC spheroids, viability
Assay: Anticancer human tumor 313798-341-R-J2-PDC patient-derived cervical squamous cell carcinoma cell line growth inhibition [PI3K]
Conditions: spheroids with HUVEC and MSC; for pIC50: curve of first compound; for viability, T/C: stronger effect = lower value
Summary of the method: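 Tumor cells grown as multi-cell spheroids with HUVEC endothelial cells and MSC fibroblast-like stroma were treated with targeted agents combined with inavolisib, alpelisib, duvelisib or copanlisib. Doses fell in half-log steps from near clinical Cmax, else from 10 microM. Viability was measured.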

[1] = second compound 0.0316 µM, first compound 0.0316 µM
[2] = second compound 0.0316 µM, first compound 0.1 µM
[3] = second compound 0.0316 µM, first compound 0.316 µM
[4] = second compound 0.0316 µM, first compound 1 µM
[5] = second compound 0.0316 µM, first compound 3.16 µM
[6] = second compound 0.0316 µM, first compound 10 µM
[7] = second compound 0.1 µM, first compound 0.0316 µM
[8] = second compound 0.1 µM, first compound 0.1 µM
[9] = second compound 0.1 µM, first compound 0.316 µM
[10] = second compound 0.1 µM, first compound 1 µM
[11] = second compound 0.1 µM, first compound 3.16 µM
[12] = second compound 0.1 µM, first compound 10 µM
[13] = second compound 0.316 µM, first compound 0.0316 µM
[14] = second compound 0.316 µM, first compound 0.1 µM
[15] = second compound 0.316 µM, first compound 0.316 µM
[16] = second compound 0.316 µM, first compound 1 µM
[17] = second compound 0.316 µM, first compound 3.16 µM
[18] = second compound 0.316 µM, first compound 10 µM
[19] = second compound 1 µM, first compound 0.0316 µM
[20] = second compound 1 µM, first compound 0.1 µM
[21] = second compound 1 µM, first compound 0.316 µM
[22] = second compound 1 µM, first compound 1 µM
[23] = second compound 1 µM, first compound 3.16 µM
[24] = second compound 1 µM, first compound 10 µM
[25] = second compound 3.16 µM, first compound 0.0316 µM
[26] = second compound 3.16 µM, first compound 0.1 µM
[27] = second compound 3.16 µM, first compound 0.316 µM
[28] = second compound 3.16 µM, first compound 1 µM
[29] = second compound 3.16 µM, first compound 3.16 µM
[30] = second compound 3.16 µM, first compound 10 µM
[31] = second compound 10 µM, first compound 0.0316 µM
[32] = second compound 10 µM, first compound 0.1 µM
[33] = second compound 10 µM, first compound 0.316 µM
[34] = second compound 10 µM, first compound 1 µM
[35] = second compound 10 µM, first compound 3.16 µM
[36] = second compound 10 µM, first compound 10 µM
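Further: spheroids exposed to compounds for seven days.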
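Wherever viability, T/C is given: 100% = DMSO vehicle control viability.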

pIC50 (second compound 0.0316 µM): 5.79 | pIC50 (second compound 0.1 µM): 5.73 | pIC50 (second compound 0.316 µM): 5.76 | pIC50 (second compound 1 µM): 5.74 | pIC50 (second compound 3.16 µM): 5.73 | pIC50 (second compound 10 µM): 5.85
Compound: CC(C)NCC(C(=O)N1CCN(c2ncnc3c2C(C)CC3O)CC1)c1ccc(Cl)cc1 (stereo not drawn) + CC(Nc1ncnc2nc[nH]c12)c1cc2cccc(Cl)c2c(=O)n1-c1ccccc1
viability, T/C [1]: 114% | viability, T/C [2]: 91.3% | viability, T/C [3]: 81.7% | viability, T/C [4]: 54% | viability, T/C [5]: 40.1% | viability, T/C [6]: 29.6% | viability, T/C [7]: 102% | viability, T/C [8]: 103% | viability, T/C [9]: 90.2% | viability, T/C [10]: 65.2% | viability, T/C [11]: 36.9% | viability, T/C [12]: 30.5% | viability, T/C [13]: 94% | viability, T/C [14]: 100% | viability, T/C [15]: 84.2% | viability, T/C [16]: 62% | viability, T/C [17]: 36.9% | viability, T/C [18]: 30% | viability, T/C [19]: 97.3% | viability, T/C [20]: 100% | viability, T/C [21]: 89.9% | viability, T/C [22]: 57.5% | viability, T/C [23]: 44.2% | viability, T/C [24]: 26.9% | viability, T/C [25]: 96.7% | viability, T/C [26]: 87.4% | viability, T/C [27]: 89.8% | viability, T/C [28]: 63.2% | viability, T/C [29]: 39.1% | viability, T/C [30]: 26.7% | viability, T/C [31]: 91.3% | viability, T/C [32]: 86.3% | viability, T/C [33]: 75.9% | viability, T/C [34]: 53.7% | viability, T/C [35]: 39% | viability, T/C [36]: 27.1%

pIC50 (second compound 0.0316 µM): 5.08 | pIC50 (second compound 0.1 µM): 5.00 | pIC50 (second compound 0.316 µM): 5.00 | pIC50 (second compound 1 µM): 5.00 | pIC50 (second compound 3.16 µM): 5.12 | pIC50 (second compound 10 µM): 5.20
Compound: CC1(C)CCC(CN2CCN(c3ccc(C(=O)NS(=O)(=O)c4ccc(NCC5CCOCC5)c([N+](=O)[O-])c4)c(Oc4cnc5[nH]ccc5c4)c3)CC2)=C(c2ccc(Cl)cc2)C1 + CC(Nc1ncnc2nc[nH]c12)c1cc2cccc(Cl)c2c(=O)n1-c1ccccc1
viability, T/C [1]: 104% | viability, T/C [2]: 86.6% | viability, T/C [3]: 107% | viability, T/C [4]: 99.5% | viability, T/C [5]: 85.2% | viability, T/C [6]: 43.6% | viability, T/C [7]: 91.6% | viability, T/C [8]: 108% | viability, T/C [9]: 85.4% | viability, T/C [10]: 89.2% | viability, T/C [11]: 84.8% | viability, T/C [12]: 49.1% | viability, T/C [13]: 99.4% | viability, T/C [14]: 101% | viability, T/C [15]: 102% | viability, T/C [16]: 102% | viability, T/C [17]: 82.4% | viability, T/C [18]: 50% | viability, T/C [19]: 103% | viability, T/C [20]: 100% | viability, T/C [21]: 94.5% | viability, T/C [22]: 96.8% | viability, T/C [23]: 74.4% | viability, T/C [24]: 49.9% | viability, T/C [25]: 103% | viability, T/C [26]: 95.3% | viability, T/C [27]: 85.2% | viability, T/C [28]: 89.8% | viability, T/C [29]: 79.8% | viability, T/C [30]: 40.5% | viability, T/C [31]: 82.1% | viability, T/C [32]: 78.8% | viability, T/C [33]: 87% | viability, T/C [34]: 78.1% | viability, T/C [35]: 62.3% | viability, T/C [36]: 42.1%

pIC50 (second compound 0.0316 µM): < 5.00 | pIC50 (second compound 0.1 µM): < 5.00 | pIC50 (second compound 0.316 µM): < 5.00 | pIC50 (second compound 1 µM): < 5.00 | pIC50 (second compound 3.16 µM): < 5.00 | pIC50 (second compound 10 µM): < 5.00
Compound: C[C@@H](NC(=O)c1ncnc(N)c1Cl)c1ncc(C(=O)Nc2cc(C(F)(F)F)c(Cl)cn2)s1 + CC(Nc1ncnc2nc[nH]c12)c1cc2cccc(Cl)c2c(=O)n1-c1ccccc1
viability, T/C [1]: 90.2% | viability, T/C [2]: 104% | viability, T/C [3]: 106% | viability, T/C [4]: 112% | viability, T/C [5]: 100% | viability, T/C [6]: 101% | viability, T/C [7]: 98.3% | viability, T/C [8]: 100% | viability, T/C [9]: 98.3% | viability, T/C [10]: 98.7% | viability, T/C [11]: 110% | viability, T/C [12]: 117% | viability, T/C [13]: 99.3% | viability, T/C [14]: 102% | viability, T/C [15]: 101% | viability, T/C [16]: 97.7% | viability, T/C [17]: 103% | viability, T/C [18]: 105% | viability, T/C [19]: 98.5% | viability, T/C [20]: 106% | viability, T/C [21]: 90.9% | viability, T/C [22]: 101% | viability, T/C [23]: 104% | viability, T/C [24]: 95.7% | viability, T/C [25]: 98% | viability, T/C [26]: 100% | viability, T/C [27]: 98.6% | viability, T/C [28]: 98.9% | viability, T/C [29]: 106% | viability, T/C [30]: 96.1% | viability, T/C [31]: 94% | viability, T/C [32]: 85.2% | viability, T/C [33]: 82.8% | viability, T/C [34]: 86.7% | viability, T/C [35]: 89.9% | viability, T/C [36]: 88.6%

pIC50 (second compound 0.0316 µM): < 7.00 | pIC50 (second compound 0.1 µM): < 7.00 | pIC50 (second compound 0.316 µM): < 7.00 | pIC50 (second compound 1 µM): < 7.00 | pIC50 (second compound 3.16 µM): < 7.00 | pIC50 (second compound 10 µM): < 7.00
Compound: Cn1ncnc1[C@H]1c2n[nH]c(=O)c3cc(F)cc(c23)N[C@@H]1c1ccc(F)cc1 + CC(Nc1ncnc2nc[nH]c12)c1cc2cccc(Cl)c2c(=O)n1-c1ccccc1
viability, T/C (second compound 0.0316 µM, first compound 0.000316 µM): 110% | viability, T/C (second compound 0.0316 µM, first compound 0.001 µM): 94.2% | viability, T/C (second compound 0.0316 µM, first compound 0.00316 µM): 89.2% | viability, T/C (second compound 0.0316 µM, first compound 0.01 µM): 109% | viability, T/C [1]: 89.5% | viability, T/C [2]: 77.1% | viability, T/C (second compound 0.1 µM, first compound 0.000316 µM): 94.7% | viability, T/C (second compound 0.1 µM, first compound 0.001 µM): 101% | viability, T/C (second compound 0.1 µM, first compound 0.00316 µM): 91.8% | viability, T/C (second compound 0.1 µM, first compound 0.01 µM): 96.7% | viability, T/C [7]: 97.4% | viability, T/C [8]: 84% | viability, T/C (second compound 0.316 µM, first compound 0.000316 µM): 92.6% | viability, T/C (second compound 0.316 µM, first compound 0.001 µM): 103% | viability, T/C (second compound 0.316 µM, first compound 0.00316 µM): 102% | viability, T/C (second compound 0.316 µM, first compound 0.01 µM): 105% | viability, T/C [13]: 85.8% | viability, T/C [14]: 85.2% | viability, T/C (second compound 1 µM, first compound 0.000316 µM): 102% | viability, T/C (second compound 1 µM, first compound 0.001 µM): 102% | viability, T/C (second compound 1 µM, first compound 0.00316 µM): 103% | viability, T/C (second compound 1 µM, first compound 0.01 µM): 95.5% | viability, T/C [19]: 90.9% | viability, T/C [20]: 86.2% | viability, T/C (second compound 3.16 µM, first compound 0.000316 µM): 92.9% | viability, T/C (second compound 3.16 µM, first compound 0.001 µM): 91.1% | viability, T/C (second compound 3.16 µM, first compound 0.00316 µM): 87.7% | viability, T/C (second compound 3.16 µM, first compound 0.01 µM): 95.5% | viability, T/C [25]: 84.1% | viability, T/C [26]: 79.9% | viability, T/C (second compound 10 µM, first compound 0.000316 µM): 88.1% | viability, T/C (second compound 10 µM, first compound 0.001 µM): 80.8% | viability, T/C (second compound 10 µM, first compound 0.00316 µM): 73.8% | viability, T/C (second compound 10 µM, first compound 0.01 µM): 78.6% | viability, T/C [31]: 74.3% | viability, T/C [32]: 61.5%
